This data set in a line: Solution-based assay: residual trans-polydatin after irradiation with 1 molar equivalent of isomerization stabilizer. Conditions: for Average of Relative Residual Trans-polydatin (percent): 0.5% by weight trans-polydatin in solution + 1 molar equivalent stabilizer, irradiated at 365 nm, 5 J total energy, HPLC-UV, per stabilizer; for Photo-stabilization of trans-polydatin in solution (in words): 365 nm, 5 J, comment on Table 2. It counts as physicochemical.

Procedure: The stabilization of polydatin was evaluated in a solution-based assay where residual trans-polydatin percentage was determined after exposure to radiation. According to the experimental method, trans-polydatin was dissolved in an appropriate solvent at 0.5% by weight. To this solution was added 1 molar equivalent of an isomerization stabilizer. An aliquot of the resulting solution was diluted with methanol and the amount of trans-polydatin was quantified by HPLC-UV. The solution containing trans-polydatin and the additive was irradiated under controlled conditions at 365 nm using 5 J of total energy. An aliquot of the irradiated solution was diluted in methanol and the amount of trans-polydatin was quantified by HPLC-UV. The residual trans-polydatin was calculated by dividing the quantified amount of trans-polydatin obtained from the irradiated solution by the amount of trans-polydatin obtained from the non-irradiated solution and is expressed as a percentage. The relative residual is indicated for each photoisomerization stabilizer and is calculated as an average relative residual for classes of photoisomerization stabilizers where indicated.

As for `O=c1cc(-c2ccc(O)cc2)oc2cc(O)cc(O)c12` [Apigenin], the “Average of Relative Residual Trans-polydatin (percent)” value was determined as 66.7%.
Consider `Cc1cc(C(C)(C)C)c(O)c(C(C)(C)C)c1` [BHT, tert-butylhydroxytoluene], for which the “Average of Relative Residual Trans-polydatin (percent)” value is recorded as −3.1% and the “Photo-stabilization of trans-polydatin in solution (in words)” value (“Photo-stabilization of trans-polydatin” for short) is given as “ineffective”.
With `O=c1cc(-c2ccccc2)oc2cc(O)c(O)c(O)c12` [Baicalein], the “Average of Relative Residual Trans-polydatin (percent)” value amounted to 42.9%.
Still for that read-out and setting: the result for `O=C(O)[C@H]1O[C@@H](Oc2cc3oc(-c4ccccc4)cc(=O)c3c(O)c2O)[C@H](O)[C@@H](O)[C@@H]1O` [Baicalin] reads 32.3%.
With `O=C(O[C@@H]1Cc2c(O)cc(O)cc2O[C@@H]1c1cc(O)c(O)c(O)c1)c1cc(O)c(O)c(O)c1` [Epigallocatechine gallate], the “Average of Relative Residual Trans-polydatin (percent)” value was found to be 0.4%.
Take `COc1cc(/C=C/C(=O)O)ccc1O` [Ferulic acid]: the “Average of Relative Residual Trans-polydatin (percent)” value is listed as 35.5%.
For `O=C(O)c1cc(O)c(O)c(O)c1` [Gallic acid], the “Average of Relative Residual Trans-polydatin (percent)” value is −0.3% and the “Photo-stabilization of trans-polydatin” value is recorded as “ineffective”.
With `COc1ccc([C@@H]2CC(=O)c3c(O)cc(O)cc3O2)cc1O` [Hesperetin], the “Average of Relative Residual Trans-polydatin (percent)” value was 30.6%.
The same measure, in the same setting: the result for `COc1ccc([C@@H]2CC(=O)c3c(O)cc(O[C@@H]4O[C@H](CO[C@@H]5O[C@@H](C)[C@H](O)[C@@H](O)[C@H]5O)[C@@H](O)[C@H](O)[C@H]4O)cc3O2)cc1O` [Hesperidine] reads 41.6%; that for `O=c1cc(-c2ccc(O)c(O)c2)oc2cc(O)cc(O)c12` [Luteolin], 63.3%.
With `O=C(O)C(O)c1ccccc1` (stereo not drawn) [Mandelic acid], the “Average of Relative Residual Trans-polydatin (percent)” value was −0.9% and the “Photo-stabilization of trans-polydatin” value is “ineffective”.
Regarding `NC(=O)c1cccnc1` [Niacinamide], the “Average of Relative Residual Trans-polydatin (percent)” value is reported as −0.3% and the “Photo-stabilization of trans-polydatin” value is listed as “ineffective”.
Consider `O=c1c(O)c(-c2ccc(O)c(O)c2)oc2cc(O)cc(O)c12` [Quercetin], for which the “Average of Relative Residual Trans-polydatin (percent)” value is given as 24.8%.
For `O=C1c2c(O)cc(O)cc2O[C@H](c2ccc(O)c(O)c2)[C@H]1O` [Taxifolin], the “Average of Relative Residual Trans-polydatin (percent)” value is given as 38.3%.
On to `O=C1O[C@H]([C@@H](O)CO)C(O)=C1O[C@H]1O[C@H](CO)[C@@H](O)[C@H](O)[C@H]1O` [Vitamin CG], for which the “Average of Relative Residual Trans-polydatin (percent)” value worked out at 6.9% and the “Photo-stabilization of trans-polydatin” value is listed as “ineffective”.
Consider `O=C(O)/C=C/c1ccc(O)cc1` [p-coumaric acid], for which the “Average of Relative Residual Trans-polydatin (percent)” value is 38.6%.
Consider Glycosyl Hesperidin, for which the “Average of Relative Residual Trans-polydatin (percent)” value came to 31.0%.
Take Vitamin E: the “Average of Relative Residual Trans-polydatin (percent)” value was found to be 0.6% and the “Photo-stabilization of trans-polydatin” value is “ineffective”.
